≈ marks a conversion by molar mass, not a printed value. Like-named read-outs stand apart in the source and are kept apart here.
Columns and labels:
S. aureus ATCC 29213 = test: In vitro antibacterial evaluation, MIC by agar dilution, S. aureus ATCC 29213; type: cell-based; conditions: Staphylococcus aureus, ATCC29213
Procedure, shortened: (§1)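 Log-phase isolates were spot-inoculated at about 10^4 cfu per spot onto Mueller-Hinton agar plates containing twofold compound dilutions (highest working concentration 128 μg/mL, lowest ≤0.25 μg/mL, duplicates). After 16-20 h at 35-36 °C, the lowest growth-inhibiting level was taken as MIC, per NCCLS agar dilution.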

S. aureus ATCC 25923 = test: In vitro antibacterial evaluation, MIC by agar dilution, S. aureus ATCC 25923; type: cell-based
Procedure, shortened: as §1

[1] = test system: S. epidermidis ATCC 31432; test: In vitro antibacterial evaluation, MIC by agar dilution, S. epidermidis ATCC 31432; type: cell-based
Procedure, shortened: as §1

[2] = test system: S. aureus Col8A (Meth^S)(lac^-); test: In vitro antibacterial evaluation, MIC by agar dilution, S. aureus Col8A; type: cell-based
Procedure, shortened: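 Log-phase isolates were spot-inoculated at about 10^4 cfu onto Mueller-Hinton agar carrying duplicate two-fold compound levels, 128 μg/mL to ≤0.25 μg/mL, following NCCLS (1991). Plates were read after 16-20 h at 35°-36° C. The lowest growth-inhibiting concentration gave the MIC (μg/ml).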

S. haemolyticus (Meth^R) = test: In vitro antibacterial evaluation, MIC by agar dilution, S. haemolyticus; type: cell-based
Procedure, shortened: as §1

E. faecium ATCC 35667 = test: In vitro antibacterial evaluation, MIC by agar dilution, E. faecium ATCC 35667; type: cell-based
Procedure, shortened: as §1

E. faecalis ATCC 29212 = test: In vitro antibacterial evaluation, MIC by agar dilution, E. faecalis ATCC 29212; type: cell-based; conditions: E. faecalis ATCC 29212
Procedure, shortened: as §1

E. coli ATCC 25922 = test: In vitro antibacterial evaluation, MIC by agar dilution, E. coli ATCC 25922; type: cell-based
Procedure, shortened: as §1

P. aeruginosa ATCC 27853 = test: In vitro antibacterial evaluation, MIC by agar dilution, P. aeruginosa ATCC 27853; type: cell-based
Procedure, shortened: as §1

[3] = test system: X. maltophilia ATCC 13637; test: In vitro antibacterial evaluation, MIC by agar dilution, X. maltophilia ATCC 13637; type: cell-based; conditions: Stenotrophomonas maltophilia, ATCC13637
Experimental: (§2) The compounds of the invention were evaluated against several β-lactamresistant bacteria strains by determining the minimum inhibitory concentration (MIC, μg/ml) of each compound with respect to each strain. The MIC, the lowest concentration of antibiotic which inhibits growth of the test organism, was determined by the agar dilution method.
(§3) To determine the MIC for bacterial isolates, the test compound was incorporated in a series of two-fold dilutions into liquified Mueller-Hinton agar. Upon solidification, a number of different bacterial strains were spot inoculated with a replicating device onto the agar surface. […] The procedures used in these studies have been standardized by the National Committee for Clinical Laboratory Standards (NCCLS), as per the NCCLS publication entitled METHODS FOR DILUTION ANTIMICROBIAL SUSCEPTIBILITY TESTS (1991), which is incorporated herein by reference.
(§4) Aliquots of antimicrobial agents were prepared in phosphate buffered saline (PBS) at pH 7.2. Tween 20 or DMSO was used as a solubilizing vehicle as needed. Standard methods of vortexing, sonicating and gentle heat were used to facilitate solubilizing the test agent. Typically, the concentration of the stock solution was 10× that of the highest drug concentration tested. A 1.28 mg/mL stock solution was used with a subsequent highest working concentration of 128 μg/mL. Serial two-fold dilutions were done through ≤0.25 μg/mL. Each drug level was tested in duplicate. Two-fold drug dilutions were done in sterile 50 mL tubes with a final drug volume of 5 mL. Upon the addition of 45 mL of molten agar, a 10-fold dilution resulted. Two, 25 mL. plates were then poured into 15×150 mm square Petri plates with grids and allowed to harden.
(§5) A control plate with a reference drug, either cefotaxime, vancomycin or imipenem, was used as the positive growth control. Stock concentrations of reference antibiotics were prepared and frozen at -80° C. Upon preparation, the control plates were sealed and stored in the refrigerator for up to 1 week prior to use; however, imipenem control plates had to be prepared just prior to use. All test plates were used within 24 hours of preparation.
(§6) Satisfactory results were obtained where the inoculum contained about 10^4 colony forming units (cfu) ±0.5 logs. Starting with pure cultures of the test isolates on agar plates, a few isolated colonies were transferred to a tube of nutrient broth and allowed to grow 4-6 hours at 35°-36° C. to reach log-phase growth. Dropwise addition of the broth culture to PBS was done to match a 0.5 McFarland turbidity standard equal to 10^8 cfu/mL. This was further diluted ten-fold in PBS to reach a working inoculum concentration of 10^7 cfu/mL. When 1 μL of the working inoculum was applied to the agar surface a concentration of about 10^4 cfu per spot was obtained.
(§7) Disposable sterile 1 μL loops were used to inoculate test plates, with each isolate in a designated grid on the agar plate. An alternate method of inoculation involved the use of a replica plater, a device with 48 steel pins allowing the simultaneous inoculation of multiple isolates. After the spots had dried, the plates were incubated at 35°-36° C. for 16-20 hours. Endpoints were assessed as the minimum inhibitory concentration (MIC) of antimicrobial agent.

[4] = test system: methicillinsusceptible S. aureus strain ATCC 13709; test: In vivo antibacterial evaluation, murine model for lethal bacteremic peritonitis; set-up: species or system S. aureus in female Swiss-Webster mice; conditions: Staphylococcus aureus, ATCC13709, sc, 72 h, two equal SC doses at challenge and 2 hours later, mice, probit, read-out: ED50
Procedure, shortened: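 Female Swiss-Webster mice received IP an LD100 bacterial titer in 7% hog gastric mucin, then two equal subcutaneous doses (at challenge and 2 h later) of two-fold increments of drug, range 0.01–512 mg/kg. Survival scored at 72 h; PD50 (total mg/kg) by probit, groups of 10.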

[5] = test system: methicillinsusceptible S. aureus strain ATCC 13709; test: Challenge strain MIC; type: cell-based; conditions: Staphylococcus aureus, ATCC13709, S. aureus ATCC 13709; read-out: Challenge str MIC
Procedure, shortened: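 MIC was found by agar dilution to NCCLS standards: two-fold compound dilutions from 128 μg/mL through ≤0.25 μg/mL in Mueller-Hinton agar, each level in duplicate. Log-phase inocula of about 10^4 cfu per spot were applied. Plates were incubated 16-20 h at 35°-36° C, and the MIC was the lowest concentration inhibiting growth.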

[6] = test system: S. aureus 76 (Meth^R)(lac^+); test: In vitro antibacterial evaluation, MIC by agar dilution, S. aureus 76; type: cell-based
Procedure, shortened: as §1

[7] = test system: S. aureus Col (Meth^R)(lac^-); test: In vitro antibacterial evaluation, MIC by agar dilution, S. aureus Col; type: cell-based
Experimental: as §2, §3, §4, §5, §6, §7
The novel agents of this invention are notable for their enhanced activity against S. aureus Col and Enterococci (E. faecium and E. faecalis). […]

[8] = S. aureus ATCC 29213, read-out: MIC
[9] = Staphylococcus aureus, ATCC25923, S. aureus ATCC 25923, read-out: MIC
[10] = Staphylococcus epidermidis, ATCC31432, S. epidermidis ATCC 31432, read-out: MIC
[11] = Staphylococcus haemolyticus, read-out: MIC
[12] = Enterococcus faecium, ATCC35667, read-out: MIC
[13] = Enterococcus faecalis, ATCC29212, read-out: MIC
[14] = Escherichia coli, ATCC25922, read-out: MIC
[15] = Pseudomonas aeruginosa, ATCC27853, read-out: MIC
[16] = Staphylococcus aureus, read-out: MIC
[17] = Staphylococcus aureus, ATCC25923
[18] = Staphylococcus epidermidis, ATCC31432

Row | Compound | MIC (S. aureus ATCC 29213; [8]) [µg/mL] | MIC (S. aureus ATCC 25923; [9]) [µg/mL] | MIC [1, 10] [µg/mL] | MIC ([2]; Staphylococcus aureus) [µg/mL] | MIC (S. haemolyticus (Meth^R); [11]) [µg/mL] | MIC (E. faecium ATCC 35667; [12]) [µg/mL] | MIC (E. faecalis ATCC 29212; [13]) [µg/mL] | MIC (E. coli ATCC 25922; [14]) [µg/mL] | MIC (P. aeruginosa ATCC 27853; [15]) [µg/mL] | MIC [3] [µg/mL] | MIC [6, 16] [µg/mL] | other results
1 | CO/N=C(\C(=O)N[C@@H]1C(=O)N2C(C(=O)O)=C(COC(C)=O)CS[C@H]12)c1csc(N)n1 [Cefotaxime, (7R)-3-Acetoxymethyl-7-[(Z)-2-(aminothiazol-4-yl)-2-(methoxyimino)acetamido]-3-cephem-4-carboxylic acid, reference compound] | 2 (≈ 4.39 µM) | < 1 | 2 (≈ 4.39 µM) | 2 (≈ 4.39 µM) | > 32 | > 32 | > 32 | < 1 | 8 to 16 (≈ 17.6 to 35.1 µM) | > 32 | – | ED50 [4]: 7.47 mg/kg; MIC [5]: 2 µg/mL (≈ 4.39 µM)
2 | O=C(Cc1ccccc1)N[C@@H]1C(=O)N2C(C(=O)O)=C(Sc3ccc(Br)cc3)CS[C@H]12 [Cmpd 5, (7R)-7-[(Phenylacetyl)amino]-3-(p-bromophenylthio)-3-cephem-4-carboxylic acid] | 0.03 (≈ 0.0594 µM) | < 0.015 | < 0.015 | 0.03 (≈ 0.0594 µM) | 16 (≈ 31.7 µM) | 4 (≈ 7.91 µM) | 2 (≈ 3.96 µM) | > 32 | > 32 | > 32 | 16 (≈ 31.7 µM) | –
3 | O=C(Cc1ccccc1)N[C@@H]1C(=O)N2C(C(=O)O)=C(Sc3ccccc3I)CS[C@H]12 [Cmpd 6, (7R)-7-[(Phenylacetyl)amino]-3-(o-iodophenylthio)-3-cephem-4-carboxylic acid] | – | – | – | < 0.015 | 4 (≈ 7.24 µM) | 0.5 (≈ 0.905 µM) | 0.5 (≈ 0.905 µM) | > 32 | > 32 | > 32 | 1 (≈ 1.81 µM) | MIC (S. aureus ATCC 29213): < 0.015 µg/mL; MIC (S. aureus ATCC 25923; [17]): < 0.015 µg/mL; MIC [1, 18]: < 0.015 µg/mL; activity against S. aureus Col, S. aureus Col 8A and Enterococci ([7]; S. aureus Col, S. aureus Col 8A, Enterococci): broad activity against both S. aureus Col and S. aureus Col 8A, as well as Enterococci
4 | O=C(Cc1ccccc1)N[C@@H]1C(=O)N2C(C(=O)O)=C(Sc3ccc(-c4ccccc4)cc3Br)CS[C@H]12 [Cmpd 11, (7R)-7-[(Phenylacetyl)amino]-3-(2-bromo-4-biphenylthio)-3-cephem-4-carboxylic acid] | 0.125 (≈ 0.215 µM) | < 0.015 | 0.03 (≈ 0.0516 µM) | 0.06 (≈ 0.103 µM) | 4 to 8 (≈ 6.88 to 13.8 µM) | 4 (≈ 6.88 µM) | 2 (≈ 3.44 µM) | > 32 | > 32 | > 32 | 4 (≈ 6.88 µM) | –
5 | O=C(Cc1ccccc1)N[C@@H]1C(=O)N2C(C(=O)O)=C(Sc3ccc(-c4ccccc4)cc3F)CS[C@H]12 [Cmpd 13, (7R)-7-[(Phenylacetyl)amino]-3-(2-fluoro-4-biphenylthio)-3-cephem-4-carboxylic acid] | 0.06 (≈ 0.115 µM) | < 0.015 | 0.03 (≈ 0.0576 µM) | 0.06 (≈ 0.115 µM) | 16 (≈ 30.7 µM) | 4 (≈ 7.68 µM) | 2 (≈ 3.84 µM) | > 32 | > 32 | > 32 | 16 (≈ 30.7 µM) | –
6 | O=C(Cc1ccccc1)N[C@@H]1C(=O)N2C(C(=O)O)=C(Sc3ccc(Br)cc3-c3ccccc3)CS[C@H]12 [Cmpd 14, (7R)-7-[(Phenylacetyl)amino]-3-(4-bromo-2-biphenylthio)-3-cephem-4-carboxylic acid] | – | 0.06 (≈ 0.103 µM) | 0.06 (≈ 0.103 µM) | 0.25 (≈ 0.43 µM) | 8 (≈ 13.8 µM) | 1 (≈ 1.72 µM) | 2 (≈ 3.44 µM) | > 32 | > 32 | > 32 | 4 (≈ 6.88 µM) | MIC (S. aureus ATCC 29213): 0.25 µg/mL (≈ 0.43 µM)
7 | O=C(Cc1ccccc1)N[C@@H]1C(=O)N2C(C(=O)O)=C(Sc3ccccc3Cl)CS[C@H]12 [Cmpd 15, (7R)-7-[(Phenylacetyl)amino]-3-(o-chlorophenylthio)-3-cephem-4-carboxylic acid] | 0.06 (≈ 0.13 µM) | 0.03 (≈ 0.0651 µM) | 0.03 (≈ 0.0651 µM) | 0.06 (≈ 0.13 µM) | 16 (≈ 34.7 µM) | 2 (≈ 4.34 µM) | 2 (≈ 4.34 µM) | > 32 | > 32 | > 32 | 8 (≈ 17.4 µM) | –
8 | N=C(N)SCc1ccc(SC2=C(C(=O)O)N3C(=O)[C@@H](NC(=O)Cc4ccccc4)[C@H]3SC2)c(I)c1 [Cmpd 58, (7R)-7-[(Phenylacetyl)amino]-3-(4-isothiouroniummethyl-2-iodophenylthio)-3-cephem-4-carboxylic acid] | – | – | – | < 0.25 | 4 (≈ 6.24 µM) | 0.5 (≈ 0.781 µM) | 1 (≈ 1.56 µM) | 32 (≈ 50 µM) | > 32 | – | 4 (≈ 6.24 µM) | MIC (S. aureus ATCC 25923; [17]): < 0.25 µg/mL; MIC [1, 18]: < 0.25 µg/mL; MIC ([7]; Staphylococcus aureus): < 0.25 µg/mL
9 | (7R)-7-[(Phenylacetyl)amino]-3-(2,3-dihydro-2,2-dimethylbenzofuran-7-yl)-3-cephem-4-carboxylic acid [Cmpd 55] | – | – | – | – | – | – | – | – | – | – | – | MIC (S. aureus ATCC 25923; S. aureus ATCC 25923): < 0.25 µg/mL; MIC ([1]; S. epidermidis ATCC 31432): < 0.25 µg/mL; MIC ([7]; S. aureus Col (Meth^R)(lac^-), high-level PBP2a producer): 4 µg/mL; MIC [6]: 16 µg/mL; MIC ([2]; S. aureus Col8A (Meth^S)(lac^-), lacks PBP2a): < 0.25 µg/mL; MIC (S. haemolyticus (Meth^R)): 16 µg/mL; MIC (E. faecium ATCC 35667): 8 µg/mL; MIC (E. faecalis ATCC 29212): 16 µg/mL; MIC (E. coli ATCC 25922): > 32 µg/mL; MIC (P. aeruginosa ATCC 27853): > 32 µg/mL
